Like-named read-outs stand apart in the source and are kept apart here.
Experiments:
[1] = system: MLKL phosphorylation in HT29-L23 human colorectal adenocarcinoma cells; assay: MLKL Phosphorylation High-Content Assay; assay type: cell-based; details: Homo sapiens
Outline: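 Cells incubated six hours at 37° C., then phospho-MLKL (S358) immunostained overnight at 4° C. and imaged by high-content microscopy. Phosphorylation quantified as mean circ-ring average intensity ratio; IC50 and Ymax from 4-parameter logistic fits.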

[2] = molecular target: T1, His-GST-TVMV-hRIPK1(1-324) (Homo sapiens, UniProt Q13546); assay: RIPK1 HTRF Binding Assay
T1 construct: The coding region of human RIPK1(1-324) flanked by NdeI site at 5′ end; made in house; host or cells: Spodoptera frugiperda (Sf9) insect cells, baculovirus
T1 sequence (Q13546 1-324): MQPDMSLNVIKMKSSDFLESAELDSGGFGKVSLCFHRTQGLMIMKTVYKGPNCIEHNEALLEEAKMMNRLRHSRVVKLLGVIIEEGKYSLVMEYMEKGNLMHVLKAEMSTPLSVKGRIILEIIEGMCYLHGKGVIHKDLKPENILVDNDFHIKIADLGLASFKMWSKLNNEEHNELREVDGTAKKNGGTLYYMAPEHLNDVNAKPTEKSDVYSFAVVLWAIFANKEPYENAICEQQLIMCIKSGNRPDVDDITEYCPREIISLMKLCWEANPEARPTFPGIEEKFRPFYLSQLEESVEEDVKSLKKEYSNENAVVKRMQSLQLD

[3] = x marks IC50 class 20-200 nM, read-out: pMLKL cell activity 20-200 nM
[4] = x marks IC50 class <20 nM, read-out: RIPK1 HTRF binding <20 nM
[5] = x marks IC50 class 20-200 nM, read-out: RIPK1 HTRF binding 20-200 nM
[6] = x marks IC50 class <20 nM, read-out: pMLKL cell activity <20 nM
[7] = x marks IC50 class >200 nM, read-out: pMLKL cell activity >200 nM

Row | SMILES | IC50 [1, 3] | IC50 [2, 4] | IC50 [2, 5] | IC50 [1, 6] | IC50 [1, 7]
1 | COc1nc(C)c(-c2ccn3nc(N)nc3c2)cc1C(=O)NCc1cc(F)cc(F)c1O[C@@H]1CCOC1 [Example 354, (R)-5-(2-amino-[1,2,4]triazolo[1,5-a]pyridin-7-yl)-N-(3,5-difluoro-2-((tetrahydrofuran-3-yl)oxy)benzyl)-2-methoxy-6-methylnicotinamide] | 20 to 200 nM | < 20 nM |  |  | 
2 | CCc1ncc(-c2ccn3nc(N)nc3c2)cc1C(=O)N[C@@H](C)c1cc(OC(F)(F)F)ccc1F [Example 321, (S)-5-(2-amino-[1,2,4]triazolo[1,5-a]pyridin-7-yl)-2-ethyl-N-(1-(2-fluoro-5-(trifluoromethoxy)phenyl)ethyl)nicotinamide] | 20 to 200 nM |  | 20 to 200 nM |  | 
3 | CCc1ncc(-c2ccn3nc(N)nc3c2)cc1C(=O)NCc1ccccc1Sc1ccccc1CO [Example 61, 5-{2-Amino-[1,2,4]triazolo[1,5-a]pyridin-7-yl}-2-ethyl-N-[(2-{[2-(hydroxymethyl)phenyl]sulfanyl}phenyl)methyl]pyridine-3-carboxamide] |  | < 20 nM |  | < 20 nM | 
4 | Cc1nc(C)c(-c2ccn3nc(N)nc3c2)cc1C(=O)NCc1cc(OC(F)(F)F)ccc1F [Example 181, 5-{2-amino-[1,2,4]triazolo[1,5-a]pyridin-7-yl}-N-{[2-fluoro-5-(trifluoromethoxy)phenyl]methyl}-2,6-dimethylpyridine-3-carboxamide] |  | < 20 nM |  | < 20 nM | 
5 | COc1ncc(-c2ccn3nc(N)nc3c2)cc1C(=O)NCc1cc(F)cc(F)c1OC1CCCOC1 (stereo not drawn) [Example 342, 5-(2-amino-[1,2,4]triazolo[1,5-a]pyridin-7-yl)-N-(3,5-difluoro-2-((tetrahydro-2H-pyran-3-yl)oxy)benzyl)-2-methoxynicotinamide] | 20 to 200 nM | < 20 nM |  |  | 
6 | Cc1ncc(-c2ccn3nc(N)nc3c2)cc1C(=O)NCc1cc(C(F)(F)F)ccc1Cl [Example 254] | 20 to 200 nM | < 20 nM |  |  | 
7 | COc1ncc(-c2ccn3nc(N)nc3c2)cc1C(=O)NCCC(O)c1ccc(F)cc1 (stereo not drawn) [Example 78, 5-{2-Amino-[1,2,4]triazolo[1,5-a]pyridin-7-yl}-N-[3-(4-fluorophenyl)-3-hydroxypropyl]-2-methoxypyridine-3-carboxamide] | 20 to 200 nM |  | 20 to 200 nM |  | 
8 | COc1ncc(-c2ccn3nc(N)nc3c2)cc1C(=O)NCc1ccccc1OCC1CCCC1 [Example 138, 5-{2-amino-[1,2,4]triazolo[1,5-a]pyridin-7-yl}-N-{[2-(cyclopentylmethoxy)phenyl]methyl}-2-methoxypyridine-3-carboxamide] | 20 to 200 nM | < 20 nM |  |  | 
9 | COc1nc(C)c(-c2ccn3nc(N)nc3c2)cc1C(=O)NCc1c(F)cccc1OCC1CCCC1 [Example 220, 5-{2-amino-[1,2,4]triazolo[1,5-a]pyridin-7-yl}-N-{[2-(cyclopentylmethoxy)-6-fluorophenyl]methyl}-2-methoxy-6-methylpyridine-3-carboxamide] | 20 to 200 nM | < 20 nM |  |  | 
10 | COc1nc(C)c(-c2ccn3nc(N)nc3c2)cc1C(=O)NCCc1ccccc1OC(F)(F)F [Example 194, 5-{2-amino-[1,2,4]triazolo[1,5-a]pyridin-7-yl}-2-methoxy-6-methyl-N-{2-[2-(trifluoromethoxy)phenyl]ethyl}pyridine-3-carboxamide] |  |  | 20 to 200 nM |  | > 200 nM
11 | Cc1ccc(-c2ccn3nc(N)nc3c2)nc1C(=O)NCCC(C)c1ccccc1 (stereo not drawn) [Example 404, 6-(2-amino-[1,2,4]triazolo[1,5-a]pyridin-7-yl)-3-methyl-N-(3-phenylbutyl)picolinamide] | 20 to 200 nM |  | 20 to 200 nM |  | 
12 | COc1ncc(-c2ccn3nc(N)nc3c2)cc1C(=O)NCc1ccccc1OC1CCCCC1 [Example 44, 5-{2-Amino-[1,2,4]triazolo[1,5-a]pyridin-7-yl}-N-{[2-(cyclohexyloxy)phenyl]methyl}-2-methoxypyridine-3-carboxamide] | 20 to 200 nM | < 20 nM |  |  | 
13 | COc1ncc(-c2ccn3nc(N)nc3c2)cc1C(=O)NCc1ccccc1Oc1ccccn1 [Example 109, 5-{2-amino-[1,2,4]triazolo[1,5-a]pyridin-7-yl}-2-methoxy-N-{[2-(pyridin-2-yloxy)phenyl]methyl}pyridine-3-carboxamide] |  | < 20 nM |  | < 20 nM | 
14 | [2H]C([2H])([2H])[C@H](NC(=O)c1cc(-c2ccn3nc(N)nc3c2)cnc1C)c1cc(OC(F)(F)F)ccc1F [Example 300, (S)-5-(2-amino-[1,2,4]triazolo[1,5-a]pyridin-7-yl)-N-(1-(2-fluoro-5-(trifluoromethoxy)phenyl)ethyl-2,2,2-H3)-2-methylnicotinamide] |  | < 20 nM |  | < 20 nM | 
15 | COc1ncc(-c2ccn3nc(N)nc3c2)cc1C(=O)NCc1cc(F)cc(F)c1OC(C)C [Example 22, 5-{2-Amino-[1,2,4]triazolo[1,5-a]pyridin-7-yl}-N-{[3,5-difluoro-2-(propan-2-yloxy)phenyl]methyl}-2-methoxypyridine-3-carboxamide] |  | < 20 nM |  | < 20 nM | 
16 | Cc1nc(C)c(-c2ccn3nc(N)nc3c2)cc1C(=O)NCc1cc(F)ccc1OCC1CCCC1 [Example 190, 5-{2-amino-[1,2,4]triazolo[1,5-a]pyridin-7-yl}-N-{[2-(cyclopentylmethoxy)-5-fluorophenyl]methyl}-2,6-dimethylpyridine-3-carboxamide] |  | < 20 nM |  | < 20 nM | 
17 | COc1nc(C)c(-c2ccn3nc(N)nc3c2)cc1C(=O)NCc1ccccc1OC1CCOC1 (stereo not drawn) [Example 6, 5-{2-Amino-[1,2,4]triazolo[1,5-a]pyridin-7-yl}-2-methoxy-6-methyl-N-{[2-(oxolan-3-yloxy)phenyl]methyl}pyridine-3-carboxamide] |  | < 20 nM |  | < 20 nM | 
18 | Nc1nc2cc(-c3cnc(Cl)c(C(=O)NCc4cccc(OCC5CC5)c4)c3)ccn2n1 [Example 164] | 20 to 200 nM |  | 20 to 200 nM |  | 
19 | COc1nc(C)c(-c2ccn3nc(N)nc3c2)cc1C(=O)NCc1cc(C(F)(F)F)cc(Cl)c1F [Example 336, 5-(2-amino-[1,2,4]triazolo[1,5-a]pyridin-7-yl)-N-(3-chloro-2-fluoro-5-(trifluoromethyl)benzyl)-2-methoxy-6-methylnicotinamide] | 20 to 200 nM |  | 20 to 200 nM |  | 
20 | Cc1cnc(-c2ccn3nc(N)nc3c2)cc1C(=O)NCC[C@@H](O)c1ccc(Cl)cc1 [Example 395, (R)-2-(2-amino-[1,2,4]triazolo[1,5-a]pyridin-7-yl)-N-(3-(4-chlorophenyl)-3-hydroxypropyl)-5-methylisonicotinamide] | 20 to 200 nM | < 20 nM |  |  | 
21 | Cc1nc(C)c(-c2ccn3nc(N)nc3c2)cc1C(=O)NCCC(C)c1ccccc1 (stereo not drawn) [Example 174, 5-{2-amino-[1,2,4]triazolo[1,5-a]pyridin-7-yl}-2,6-dimethyl-N-(3-phenylbutyl)pyridine-3-carboxamide] |  |  | 20 to 200 nM |  | > 200 nM
22 | Nc1nc2cc(-c3cnc(Cl)c(C(=O)NCc4ccccc4OC(F)(F)F)c3)ccn2n1 [Example 168, 5-{2-amino-[1,2,4]triazolo[1,5-a]pyridin-7-yl}-2-chloro-N-{[2-(trifluoromethoxy)phenyl]methyl}pyridine-3-carboxamide] |  |  | 20 to 200 nM |  | > 200 nM
23 | COc1ncc(-c2ccn3nc(N)nc3c2)cc1C(=O)NCc1cc(C(F)(F)F)ccc1F [Example 116, 5-{2-amino-[1,2,4]triazolo[1,5-a]pyridin-7-yl}-N-{[2-fluoro-5-(trifluoromethyl)phenyl]methyl}-2-methoxypyridine-3-carboxamide] | 20 to 200 nM |  | 20 to 200 nM |  | 
24 | COc1ncc(-c2ccn3nc(N)nc3c2)cc1C(=O)NCCC(O)c1ccc(F)cc1 (single isomer, unassigned) [Example 71-1, 5-(2-Amino-[1,2,4]triazolo[1,5-a]pyridin-7-yl)-N-(3-(4-fluorophenyl)-3-hydroxypropyl)-2-methoxynicotinamide] | 20 to 200 nM |  | 20 to 200 nM |  | 
25 | CCOc1ncc(-c2ccn3nc(N)nc3c2)cc1C(=O)Nc1cnn(Cc2ccccc2)c1 [Example 279, 5-{2-amino-[1,2,4]triazolo[1,5-a]pyridin-7-yl}-N-(1-benzyl-1H-pyrazol-4-yl)-2-ethoxypyridine-3-carboxamide] | 20 to 200 nM |  | 20 to 200 nM |  | 
26 | Cc1ncc(-c2ccn3nc(N)nc3c2)cc1C(=O)NCc1ccccc1OCC1CC1 [Example 250, 5-{2-amino-[1,2,4]triazolo[1,5-a]pyridin-7-yl}-N-{[2-(cyclopropylmethoxy)phenyl]methyl}-2-methylpyridine-3-carboxamide] | 20 to 200 nM | < 20 nM |  |  | 
27 | Cc1ccc(-c2ccn3nc(N)nc3c2)nc1C(=O)NCC[C@@H](O)c1ccc(Cl)cc1 [Example 402, (R)-6-(2-amino-[1,2,4]triazolo[1,5-a]pyridin-7-yl)-N-(3-(4-chlorophenyl)-3-hydroxypropyl)-3-methylpicolinamide] | 20 to 200 nM |  | 20 to 200 nM |  | 
